Data from US6767991B1, “Hepatitis C inhibitor peptides” (priority 1997, dated 2004).
pIC50: −log10 of the molar value. Like-named read-outs stand apart in the source and are kept apart here. *1 amine or outer side, *2 acyl side, *3 side chain or, on linkers, in order; H or OH if unused. Where a SMILES comes first, the peptide text is derived from it. Where no end group is shown, it is not given here. [ ]: non-standard residue; d: D form. The star is where a group is joined. Acca(2-Et,1R,2R) = CC[C@@H]1C[C@]1(N)C(=O)O; CH2(1-naphthyl) = c1ccc2c(C*)cccc2c1; mXylylene = c1cc(C[*:1])cc(C[*:2])c1; oXylylene = c1ccc(C[*:2])c(C[*:1])c1; Hyp = O=C(O)[C@@H]1C[C@@H](O)CN1; Chg = N[C@H](C(=O)O)C1CCCCC1; Tle = CC(C)(C)[C@H](N)C(=O)O; Pip = O=C(O)[C@@H]1CCCCN1; Nva = CCC[C@H](N)C(=O)O; Abu = CC[C@H](N)C(=O)O; Ac3c = NC1(C(=O)O)CC1; Meb = Cc1ccc(C*)cc1

Experiments:
[1] = molecular target: T1, recombinant HCV NS3 protease type 1b (Hepatitis C virus genotype 1b, UniProt P26663); test: Recombinant HCV NS3 protease radiometric assay; assay type: biochemical, HCV genotype 1b
T1 construct: recombinant HCV NS3 protease (amino acid 1027 to 1206) was cloned in the pET11d bacterial expression vector; made in house; host or cells: E. coli BL21(DE3)pLysS
T1 sequence (P26663 1027-1206): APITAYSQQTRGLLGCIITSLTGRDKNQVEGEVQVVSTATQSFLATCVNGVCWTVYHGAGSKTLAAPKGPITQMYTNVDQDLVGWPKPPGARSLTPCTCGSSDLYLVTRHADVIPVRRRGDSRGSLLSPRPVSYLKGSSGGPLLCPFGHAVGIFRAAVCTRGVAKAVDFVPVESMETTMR
Description: Cloning, Expression and Purification of the Recombinant HCV NS3 Protease type 1b.
Serum from an HCV-infected patient was obtained through an external collaboration (Bernard Willems MD, Hôpital St-Luc. Montréal. Canada and Dr. Donald Murphy, Laboratoire de Santé Publique du Québec, Ste-Anne de Bellevue, Canada). An engineered full-length cDNA template of the HCV genome was constructed from DNA fragments obtained by reverse transcription-PCR (RT-PCR) of serum RNA and using specific primers selected on the basis of homology between other genotype 1b strains. From the determination of the entire genomic sequence, a genotype 1b was assigned to the HCV isolate according to the classification of Simmonds et al. (J. Clin. Microbiol., (1993), 31, p.1493-1503). […] A DNA fragment encoding the polyprotein precursor (NS3/NS4A/NS4B/NS5A/NS5B) was generated by PCR and introduced into eukaryotic expression vectors. […] The mature NS3 protein was not observed with expression of a polyprotein precursor containing the mutation S1165A, which inactivates the NS3 protease, confirming the functionality of the HCV NS3 protease.
The DNA fragment encoding the recombinant HCV NS3 protease (amino acid 1027 to 1206) was cloned in the pET11d bacterial expression vector. The NS3 protease expression in E. coli BL21(DE3)pLysS was induced by incubation with 1 mM IPTG for 3 h at 22° C. A typical fermentation (18 L) yielded approximately 100 g of wet cell paste. The cells were resuspended in lysis buffer (3.0 mL/g) consisting of 25 mM sodium phosphate, pH 7.5, 10% glycerol (v/v), 1 mM EDTA, 0.01% NP-40 and stored at −80° C. Cells were thawed and homogenized following the addition of 5 mM DTT. Magnesium chloride and DNase were then added to the homogenate at final concentrations of 20 mM and 20 μg/mL respectively. After a 25 min incubation at 4° C., the homogenate was sonicated and centrifuged at 15000×g for 30 min at 4° C. The pH of the supernatant was then adjusted to 6.5 using a 1 M sodium phosphate solution.
An additional gel filtration chromatography step was added to the 2 step purification procedure described in WO 95/22985 (incorporated herein by reference). Briefly, the supernatant from the bacterial extract was loaded on a SP HiTrap column (Pharmacia) previously equilibrated at a flow rate of 2 mL/min in buffer A (50 mM sodium phosphate. pH 6.5, […], 1 mM EDTA, 5 mM DTT, 0.01% NP-40). The column was then washed with buffer A containing 0.15 M NaCl and the protease eluted by applying 10 column volumes of a linear 0.15 to 0.3 M NaCl gradient. NS3 protease-containing fractions were pooled and diluted to a final NaCl concentration of 0.1 M. The enzyme was further purified on a HiTrap Heparin column (Pharmacia) equilibrated in buffer B (25 mM sodium phosphate, pH 7.5, 10% glycerol, 5 mM DTT, 0.01% NP-40). The sample was loaded at a flow rate of 3 mL/min. The column was then washed with buffer B containing 0.15 M NaCl at a flow rate of 1.5 mL/min. Two step washes were performed in the presence of buffer B containing 0.3 or 1 M NaCl. The protease was recovered in the 0.3M NaCl wash, diluted 3-fold with buffer B, reapplied on the HiTrap Heparin column and eluted with buffer B containing 0.4 M NaCl. Finally, the NS3 protease-containing fractions were applied on a Superdex 75 HiLoad 16/60 column (Pharmacia) equilibrated in buffer B containing 0.3 M NaCl. The purity of the HCV NS3 protease obtained from the pooled tractions was judged to be greater than 95% by SDS-PAGE followed by densitometry analysis.
The enzyme was stored at −80° C. and was thawed on ice and diluted just prior to use.
Recombinant HCV NS3 Protease Radiometric Assay
The substrate used for the HCV NS3 protease radiometric assay, DDIVPC-SMSYTW [SEQ. ID NO. 2], is cleaved between the cysteine and the serine residues by the enzyme. The sequence DDIVPC-SMSYTW [SEQ. ID NO. 2] corresponds to the NS5A/NS5B natural cleavage site in which the cysteine residue in P2 has been substituted for a proline. […]

[2] = molecular target: T2, HCV NS3 protease type 1b/NS4A cofactor peptide (Hepatitis C virus genotype 1b, UniProt P26663); test: Recombinant HCV NS3 protease/NS4A cofactor peptide radiometric assay; assay type: biochemical, HCV genotype 1b
T2 construct: recombinant HCV NS3 protease (amino acid 1027 to 1206) was cloned in the pET11d bacterial expression vector; made in house; host or cells: E. coli BL21(DE3)pLysS
T2 sequence (P26663 1027-1206, other chains not shown): as the sequence (P26663 1027-1206) above
Procedure: Recombinant HCV NS3 Protease/NS4A Cofactor Peptide Radiometric Assay.
The enzyme was stored at −80° C., thawed on ice and diluted just prior to use in the assay buffer containing the NS4A cofactor peptide.
The substrate used for the NS3 protease/NS4A cofactor peptide radiometric assay, DDIVPC-SMSYTW [SEQ. ID NO. 2], is cleaved between the cysteine and the serine residues by the enzyme. The sequence DDIVPC-SMSYTW [SEQ. ID NO. 2] corresponds to the NS5A/NS5B natural cleavage site in which the cysteine residue in P2 has been substituted for a proline. The peptide substrate DDIVPC-SMSYTW [SEQ. ID NO. […] ID NO. […] [SEQ. ID NO. 5] (molar ratio enzyme: cofactor 1:100) in the absence or presence of inhibitors. The separation of substrate from products is performed by adding avidin-coated agarose beads to the assay mixture followed by filtration. […] ID NO. 4] product found in the filtrate allows for the calculation of the percentage of substrate conversion and of the percentage of inhibition.
Tris and Tris-HCl (UltraPure) were obtained from Gibco-BRL. Glycerol (UltraPure), MES and BSA were purchased from Sigma. TCEP was obtained from Pierce, DMSO from Aldrich and NaOH from Anachemia.
Assay buffer: 50 mM Tris HCl, pH 7.5, 30% (w/v) glycerol, 1 mg/mL BSA, 1 mM TCEP (TCEP added just prior to use from a 1 M stock solution in water).
Substrate: […] [SEQ. ID NO.
ID NO. 3] (˜1 nM final concentration).
The assay was performed in a 96-well polypropylene plate from Costar. Each well contained:
20 μL substrate/tracer in assay buffer;
10 μL±inhibitor in 20% DMSO/assay buffer;
10 μL NS3 protease 1b/NS4 cofactor peptide (molar ratio 1:100).
Blank (no inhibitor and no enzyme) and control (no inhibitor) were also prepared on the same assay plate.
The enzymatic reaction was initiated by the addition of the enzyme/NS4A peptide solution and the assay mixture was incubated for 40 min at 23° C. under gentle agitation. Ten (10) μL of 0.5N NaOH were added and 10 μL 1 M MES, pH 5.8 were added to quench the enzymatic reaction.
Twenty (20) μL of avidin-coated agarose beads (purchased from Pierce) were added in a Millipore MADP N65 filtration plate. The quenched assay mixture was transferred to the filtration plate, and incubated for 60 min at 23° C. under gentle agitation.
The plates were filtered using a Millipore MultiScreen Vacuum Manifold Filtration apparatus, and 40 μL of the filtrate was transferred in an opaque 96-well plate containing 60 μL of scintillation fluid per well.
The % inhibition was calculated with the following equation:
100-[(countsinh-countsblank)/(countsctl-countsblank)×100]

[3] = molecular target: T3, human leukocyte elastase (Homo sapiens, UniProt P08246); test: Specificity assay: human leukocyte elastase; assay type: biochemical
T3 sequence (P08246 30-267): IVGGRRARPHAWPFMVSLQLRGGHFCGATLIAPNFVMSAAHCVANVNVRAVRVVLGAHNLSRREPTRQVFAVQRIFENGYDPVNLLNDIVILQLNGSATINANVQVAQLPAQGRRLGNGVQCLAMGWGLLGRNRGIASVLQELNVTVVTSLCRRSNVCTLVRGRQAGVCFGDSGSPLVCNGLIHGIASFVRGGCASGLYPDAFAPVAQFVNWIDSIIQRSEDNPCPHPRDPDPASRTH
Procedure: The final conditions for each assay were as follows:
[100 μM Succ-AAPF-pNA [SEQ. ID NO.
The percentage of inhibition was calculated using the formula:
[1-((UVinn-UVblank)/(UVctl-UVblank))]×100

CC[C@H](C)[C@H](NC(=O)[C@H](CC(=O)O)NC(=O)[C@H](CC(=O)O)NC(C)=O)C(=O)N[C@H](C(=O)N1CCC[C@H]1C(=O)N[C@@H](CS)C(=O)O)C1CCCCC1 [compound 114] (Ac-DDI[Chg]PC-OH; C-terminus assumed)
pIC50 [1]: 4.30

Ac-DDIVFC [compound 117]
pIC50 [1]: 4.60

CC[C@@H]1C[C@]1(NC(=O)[C@@H]1C[C@@H](OCc2cccc3ccccc23)CN1C(=O)[C@@H](NC(=O)[C@@H](NC(C)=O)C1CCCCC1)C(C)C)C(=O)O [compound 513]
fold more potent than the corresponding 1S,2S isomer ([2]; 1R,2R isomer (513) versus 1S,2S isomer (514)): 25 fold | IC50 ([2]; IC50 (μM), Table 5, first line of the cell, NS3 protease/NS4A cofactor peptide radiometric assay (Example 38)): 1.66 µM | pIC50 ([2]; text b180, values of Table 5, 1R,2R versus 1S,2S isomer at P1, read-out: IC50): 5.80 | pIC50 [3]: < 3.52

CC[C@H](NC(=O)[C@@H](NC(=O)[C@@H](NC(=O)[C@H](CC(=O)O)NC(=O)[C@H](CC(=O)O)NC(C)=O)[C@@H](C)CC)C(C)C)C(=O)N[C@@H](CS)C(=O)O [compound 115] (Ac-DDIV[Abu]C-OH; C-terminus assumed)
pIC50 [1]: 4.24

Ac-DEIVPC [compound 106]
pIC50 [1]: 4.80

CCC[C@H](NC(=O)[C@@H]1C[C@@H](OCc2ccccc2C)CN1C(=O)[C@@H](NC(=O)[C@@H](NC(=O)[C@H](CC(=O)O)NC(=O)[C@H](CC(=O)O)NC(C)=O)[C@@H](C)CC)C(C)C)C(=O)O [compound 204] (Ac-DDIV[Hyp](oXylylene)[Nva]-OH; C-terminus assumed)
pIC50 [1]: 5.03

CC(=O)N[C@H](C(=O)N[C@H](C(=O)N1C[C@H](OCc2cccc3ccccc23)C[C@H]1C(=O)NC1(C(=O)O)CC1)C(C)C)C1CCCCC1 [compound 227] (Ac-[Chg]V[Hyp](CH2(1-naphthyl))[Ac3c]-OH)
pIC50 ([2]; Table 2, unmarked values: NS3 protease/NS4A cofactor peptide radiometric assay, read-out: IC50): 5.52 | pIC50 [3]: < 3.22

Ac-DDIIPC [compound 113]
pIC50 [1]: 4.25

CC(=O)N[C@H](C(=O)N[C@H](C(=O)N1C[C@H](Oc2ccc(Br)cc2)C[C@H]1C(=O)NC1(C(=O)O)CC1)C(C)C)C1CCCCC1 [compound 238]
pIC50 ([2]; IC50, Table 2, unmarked values: NS3 protease/NS4A cofactor peptide radiometric assay): 4.57 | pIC50 ([3]; Table 2, human leukocyte elastase, read-out: HLE): 3.71

CCC[C@H](NC(=O)[C@@H]1C[C@@H](OCc2cccc(C)c2)CN1C(=O)[C@@H](NC(=O)[C@@H](NC(=O)[C@H](CC(=O)O)NC(=O)[C@H](CC(=O)O)NC(C)=O)[C@@H](C)CC)C(C)C)C(=O)O [compound 205] (Ac-DDIV[Hyp](mXylylene)[Nva]-OH; C-terminus assumed)
pIC50 [1]: 5.17

CCC[C@H](NC(=O)[C@@H]1CCCN1C(=O)[C@@H](NC(=O)[C@@H](NC(=O)[C@@H](NC(=O)[C@H](CC(=O)O)NC(C)=O)C(C)(C)C)[C@@H](C)CC)C(C)C)C(=O)O [compound 129] (Ac-D[Tle]IVP[Nva]-OH; C-terminus assumed)
pIC50 [1]: 3.57

CCC[C@H](NC(=O)[C@@H]1C[C@@H](OCc2ccc(C)cc2)CN1C(=O)[C@@H](NC(=O)[C@@H](NC(=O)[C@H](CC(=O)O)NC(=O)[C@H](CC(=O)O)NC(C)=O)[C@@H](C)CC)C(C)C)C(=O)O [compound 206] (Ac-DDIV[Hyp](Meb)[Nva]-OH)
pIC50 [1]: 5.19

Ac-DDLVPC [compound 112]
pIC50 [1]: 4.04

Ac-DDIVLC [compound 116]
pIC50 [1]: 4.80

CC[C@@H]1C[C@]1(NC(=O)[C@@H]1C[C@@H](OCc2cccc3ccccc23)CN1C(=O)[C@@H](NC(=O)[C@@H](NC(=O)[C@@H](CCC(=O)O)NC(=O)[C@H](CC(=O)O)NC(C)=O)C1CCCCC1)C(C)C)C(=O)O [compound 518] (Ac-D[dE][Chg]V[Hyp](CH2(1-naphthyl))[Acca(2-Et,1R,2R)]-OH)
pIC50 ([2]; Table 5, first line of the cell, NS3 protease/NS4A cofactor peptide radiometric assay (Example 38), read-out: IC50): 7.96 | pIC50 [3]: < 3.52

CC(=O)N[C@@H](CC(=O)O)C(=O)N[C@@H](CC(=O)O)C(=O)N[C@H](C(=O)N[C@H](C(=O)N1CCC[C@H]1C(=O)N[C@@H](CS)C(=O)O)C(C)C)C1CCCCC1 [compound 110] (Ac-DD[Chg]VPC-OH; C-terminus assumed)
pIC50 [1]: 4.62

Ac-DDVVPC [compound 109]
pIC50 [1]: 4.10

CCC[C@H](NC(=O)[C@@H]1CCCCN1C(=O)[C@@H](NC(=O)[C@@H](NC(=O)[C@H](CC(=O)O)NC(=O)[C@H](CC(=O)O)NC(C)=O)[C@@H](C)CC)C(C)C)C(=O)O [compound 127] (Ac-DDIV[Pip][Nva]-OH; C-terminus assumed)
pIC50 [1]: 3.22

Ac-DDIVVC [compound 118]
pIC50 [1]: 3.88

Ac-DDIVAC [compound 120]
pIC50 [1]: 4.12

Ac-DVIVPC [compound 107]
pIC50 [1]: 4.07
